From patent US20230406859A1, “METHOTREXATE ANALOGS AND METHODS OF USE” (The United States of America, as represented by the …, priority 2020, published 2023) come the findings set out here.

Type in all cases: cell-based
Data set [1] has as its target T1, thymidylate synthase (TS) (Homo sapiens, UniProt P04818). The experiment in a line: Western blot of thymidylate synthase levels in HBL1 cells. The following applies: 1 μM, 16 h. Details: Western blot detection of folate-cofactor dependent enzyme levels after treatment of HBL1 cells; endogenous in cells; host or cells: HBL1 lymphoma cell line. (In general: Immunoblotting shows a protein as a band on a membrane.)

Data set [2] addresses T2, DHFR (Homo sapiens, UniProt P00374).
T2 construct: Western blot detection of DHFR levels after treatment of HBL1 cells for 16 h; endogenous in cells; host or cells: HBL1 lymphoma cell line
T2 sequence (P00374 1-187): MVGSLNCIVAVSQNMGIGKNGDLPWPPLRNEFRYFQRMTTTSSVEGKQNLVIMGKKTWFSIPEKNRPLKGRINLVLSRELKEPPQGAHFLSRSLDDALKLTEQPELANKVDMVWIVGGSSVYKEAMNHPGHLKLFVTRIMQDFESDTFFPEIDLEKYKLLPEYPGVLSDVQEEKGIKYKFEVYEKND
Kind of data set: Western blot detection of DHFR levels in 293T cells. To be noted: 16 h at 1 μM. The method, then: (§1) Cell Culture Methods: Cells (HBL1, immortalized fibroblasts from a healthy donor, or 293T) were seeded at the numbers indicated in a 12-well plate in 500 ul. […] Human embryonic kidney HEK293T cells and immortalized fibroblasts were maintained in DMEM (Gibco) supplemented with 10% fetal bovine serum (Hyclone), 2 mmol/L L-glutamine, Hepes (Gibco), and 100 U/mL penicillin/streptomycin (Invitrogen). The lymphoma cell line HBL1 was maintained in RPMI (Life Technology) supplemented with 5% fetal bovine serum (Hyclone), 2 mmol/L 1-glutamine, Hepes (Gibco), and 100 U/mL penicillin/streptomycin (Invitrogen). Cells were cultured in incubators maintained at 37° C., with 5% CO2 and 85% humidity.
(§2) Western blotting: Cells at confluence from 12-well plate treatments were washed with PBS and lysed in 75 μL/well NP40 lysis buffer (Cell Signaling), subjected to agitation and centrifugation. Approximately 100 μg of total protein was used per analysis. Proteins were sized on a NuPAGE 12% Bis-Tris Gel, 1.0 mm×10 wells, proteins transferred to 0.2 μm nitrocellulose membrane for 60 min followed by blocking with 5% t milk in TBS-T for 1 h at ambient temperature with gentle shaking. […]

For the next data set, the system named is HBL1 cell line. The experiment in a line: CellTiter-Glo cell viability (cytotox), HBL1 cell line, 72 hours. The following applies: HBL1 cell line, CellTiter-Glo; unit inferred. The protocol:
CellTiter-Glo viability assays: Five μL of cells (2500 cells) from the 12-well plate culture were plated into white 1536-well plates (Greiner, Monroe, NC, 789173-F) in 6 replicates. CellTiter-Glo Luminescent Cell Viability Assay (CTG) (Promega, G7572), 2.5 μL/well reagent was added with a BioRAPTR FRD (Beckman Coulter, Sykesville, MD), plates were incubated in the dark at ambient temperature for 10 min, and luminescence measured with a ViewLux 1430 Ultra HTS (Perkin Elmer, Waltham, MA).

Data set [3] has as its target T1, thymidylate synthase (TS). Kind of data set: Western blot of thymidylate synthase levels in fibroblasts. To be noted: 16 h.
In data set [4] the target is T2, DHFR. The following applies: HBL1 cells, Western blot. From the text:
Human embryonic kidney HEK293T cells and immortalized fibroblasts were maintained in DMEM (Gibco) supplemented with 10% fetal bovine serum (Hyclone), 2 mmol/L L-glutamine, Hepes (Gibco), and 100 U/mL penicillin/streptomycin (Invitrogen). The lymphoma cell line HBL1 was maintained in RPMI (Life Technology) supplemented with 5% fetal bovine serum (Hyclone), 2 mmol/L 1-glutamine, Hepes (Gibco), and 100 U/mL penicillin/streptomycin (Invitrogen).
Western blotting: Cells at confluence from 12-well plate treatments were washed with PBS and lysed in 75 μL/well NP40 lysis buffer (Cell Signaling), subjected to agitation and centrifugation. Approximately 100 μg of total protein was used per analysis. […] Blots were first incubated with 1:2000 dilution of anti-human DHFR antibody (Abcam, ab124814, host rabbit) for 16 h at 4° C. with shaking, washed 3× with TBS-T and incubated with 1:2000 dilution of anti-human β-actin primary antibody (Cell Signaling, host mouse) for 1 h at ambient temperature with shaking. Blots were then washed 3× with TBS-T and incubated with 1:5000 HRP secondary antibody (Novex, anti-Rabbit IgG raised in Goat, 1 mg/ml) for 1 h at ambient temperature, then washed with 3×TBS-T and developed with Pierce ECL Dura reagent for 5 min. Immunoreactive bands were imaged on a ChemiDoc Imaging System (Bio-Rad) with 20 s chemiluminescence exposure. The molecular weight marker ladder was imaged with colorimetric auto-exposure, and both images merged.

Data set [5] concerns the target T1, thymidylate synthase (TS). Kind of data set: Western blot of thymidylate synthase levels in 293T cells. To be noted: 16 h.
Data set [6] addresses T2, DHFR. The experiment in a line: Western blot detection of DHFR levels in fibroblasts. The following applies: 16 h at 1 μM. The method, then:
as §1, §2

The target in data set [7] is T3, DHFR (Homo sapiens, UniProt P00374).
T3 construct: endogenous in cells
T3 sequence (P00374 2-187): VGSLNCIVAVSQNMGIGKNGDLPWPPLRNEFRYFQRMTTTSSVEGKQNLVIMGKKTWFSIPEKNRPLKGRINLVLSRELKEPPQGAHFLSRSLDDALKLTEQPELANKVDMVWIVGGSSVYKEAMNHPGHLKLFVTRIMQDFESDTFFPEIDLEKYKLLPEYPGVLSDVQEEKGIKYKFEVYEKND
The experiment in a line: Western blot for DHFR in MTX-resistant HBL1 cell line. Details: dose or concentration left out as unconfirmed. The method, then:
Protein expression analysis: Cells were collected and homogenized in lysis buffer (20 mM Tris-HCl (pH 7.5), 150 mM NaCl, 1 mM Na2EDTA, 1 mM EGTA 1% Triton, 2.5 mM sodium pyrophosphate) with freshly added protease inhibitors (50 mM HEPES, pH 7.6, 150 mM NaCl, 20 mM EDTA, 10 mM sodium orthovanadate (Vanadate, Na3VO4), 100 mM NaF, 2% Triton X-100, 10 μg/ml aprotinin, 10 μg/ml leupeptin, 0.5 mm phenylmethyl sulfonyl fluoride). […] The membrane was immunoblotted with rabbit polyclonal anti-DHFR or mouse anti-β-actin antibodies. The immune complexes were detected by horseradish peroxidase-conjugated secondary antibodies (Thermo Scientific) and developed using a ChemiDoc MP Imager (Bio-Rad). To detect HiBiT-tagged proteins, the membrane was rinsed for 1 h in TBST and then incubated in LgBiT/buffer solution overnight. Nano-Glo® Luciferase Assay Substrate furimazine was added and incubated 5 minutes, and the blot was exposed on the imager.

The target of data set [8] is T4, human DHFR-HiBiT fusion protein (Homo sapiens, UniProt P00374).
T4 construct: expressed in transfected cells; host or cells: HBL1 cells retrovirally infected with pBMN-Ires-Lyt-2 carrying DHFR-HiBiT
T4 sequence (P00374 with tags, fused parts or gaps): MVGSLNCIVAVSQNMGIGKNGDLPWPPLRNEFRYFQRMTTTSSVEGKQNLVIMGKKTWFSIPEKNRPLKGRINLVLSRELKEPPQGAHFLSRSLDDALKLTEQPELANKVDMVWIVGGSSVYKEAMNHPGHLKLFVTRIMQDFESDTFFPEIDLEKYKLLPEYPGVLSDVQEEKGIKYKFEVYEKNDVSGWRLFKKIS
The experiment in a line: DHFR-HiBiT assay (high-throughput DHFR abundance) in HBL1 cells. The following applies: HBL1, 24 h, read-out: efficacy (%). From the text:
The human DHFR-HiBiT construct was synthetized (Bio Basic) and cloned into the retroviral vector pBMN-Ires-Lyt-2 (provided by G. Nolan, Stanford University, Stanford, CA) which expresses the coding region of mouse CD8a (Lyt-2) using the restriction sites BamHI/XhoI. All constructs were sequenced to validate authenticity. Infected cells were positively selected based on murine CD8a expression using magnetic beads (Miltenyi Biotech).
Cell culture: Human embryonic kidney HEK293T cells were maintained in DMEM (Gibco) supplemented with 10% fetal bovine serum (Hyclone), 2 mmol/L 1-glutamine, HEPES (Gibco) and 100 U/mL penicillin/streptomycin (Invitrogen). The lymphoma cell line HBL1 were maintained in RPMI (Life Technology) supplemented with 5% fetal bovine serum (Hyclone), 2 mmol/L L-glutamine, HEPES (Gibco) and 100 U/mL penicillin/streptomycin (Invitrogen).
Transfection and retroviral infections: Transfections were performed using Lipofectamine 2000 (Invitrogen) according to the manufacturer's protocol. For retroviral infections, viruses were produced in HEK293T cells and used to infect HBL1 cell line. […] Supernatants containing the retrovirus were collected and filtered at 48- and 72-hours post-transfection. HBL1 cells were centrifuged and then resuspended with the retroviral supernatant with 8 μg/ml of polybrene. The cells were spin-infected twice on consecutive days at 2,500 rpm, at RT, for 90 minutes.
Lytic HiBiT Detection: Cells were plated in solid white 1536-well tissue culture plates (Greiner), at the concentration of 2000 cells/well. After treatment, an equal volume of Nano-Glo HiBiT Lytic Reagent (Promega) containing the substrate furimazine and Large BiT (LgBiT) was added to the cells according to the manufacturer's protocol. Cells were incubated for 10 min at room temperature, and luminescence was measured using a Perkin Elmer ViewLux microplate imager with 30 seconds of exposure time.
A general note: HiBiT is a short tag that completes a luciferase, so light tracks the accessible tagged protein.

The next data set deals with HBL1 cells. The experiment in a line: CellTiter-Glo assay of cellular ATP levels in HBL1 cells (16 h). The protocol: as §1
Cell-Titer-Glo viability assays: Five μL of cells (2500 cells) from the 12-well plate culture were plated into white 1536-well plates (Greiner, Monroe, NC, 789173-F) in 6 replicates. CellTiter-Glo Luminescent Cell Viability Assay (CTG) (Promega, G7572), 2.5 μL/well reagent was added with a BioRAPTR FRD (Beckman Coulter, Sykesville, MD), plates were incubated in the dark at ambient temperature for 10 min, and luminescence measured with a ViewLux 1430 Ultra HTS (Perkin Elmer, Waltham, MA).
On the technique in general: Cellular ATP, detected with luciferase, serves as a proxy for viable cell number.

Read-outs that look alike come from different tables or passages of the source.

T1 sequence (P04818 2-313 limits assumed): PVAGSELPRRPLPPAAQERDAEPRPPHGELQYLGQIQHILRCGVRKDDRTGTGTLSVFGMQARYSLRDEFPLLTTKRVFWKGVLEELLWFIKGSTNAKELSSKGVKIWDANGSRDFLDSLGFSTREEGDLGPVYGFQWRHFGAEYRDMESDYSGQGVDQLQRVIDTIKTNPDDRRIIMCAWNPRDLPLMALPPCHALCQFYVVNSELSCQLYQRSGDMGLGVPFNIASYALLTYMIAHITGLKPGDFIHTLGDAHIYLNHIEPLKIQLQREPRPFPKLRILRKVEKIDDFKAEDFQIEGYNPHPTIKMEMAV

Broadly, the IC50 is the concentration that inhibits the measured activity by half. As for `CN(Cc1cnc2nc(N)nc(N)c2n1)c1ccc(C(=O)N[C@@H](CCC(=O)NCCCNc2cccc3c2C(=O)N(C2CCC(=O)NC2=O)C3=O)C(=O)O)cc1` (stereo partly drawn) [NCGC00685938, N2-(4-(((2,4-diaminopteridin-6-yl)methyl)(methyl)amino)benzoyl)-N5-(3-((2-(2,6-dioxopiperidin-3-yl)-1,3-dioxoisoindolin-4-yl)amino)propyl)-L-glutamine], the results for the “effect on TS protein level” value in data set [1], in data set [3] and in [5] were “slight increase in TS”, “low but detectable increases in TS” and “no significant change in TS levels”, respectively. The “effect on DHFR protein levels” value on DHFR [2] was “essentially inactive”; at DHFR [4], “essentially inactive”; on DHFR [6], “significant degradation of DHFR”. The IC50 in the data set with HBL1 cell line amounted to 1.66 µM.

As for `CN(Cc1cnc2nc(N)nc(N)c2n1)c1ccc(C(=O)N[C@@H](CCC(=O)NCCOCCOCCOCCNC(=O)COc2cccc3c2C(=O)N(C2CCC(=O)NC2=O)C3=O)C(=O)O)cc1` (stereo partly drawn) [NCGC00685965, (19S)-19-(4-(((2,4-diaminopteridin-6-yl)methyl)(methyl)amino)benzamido)-1-((2-(2,6-dioxopiperidin-3-yl)-1,3-dioxoisoindolin-4-yl)oxy)-2,16-dioxo-6,9,12-trioxa-3,15-diazaicosan-20-oic acid], the “effect on TS protein level” value in data set [1] is recorded as “slight increase in TS”. For the same compound, the “depletion of cellular DHFR” value on DHFR [7] is “remained capable of depleting cellular DHFR”. The compound further yielded an IC50 with HBL1 cell line of 5.91 µM. Moreover, in data set [8], the Dmax came to 64.2%. Besides, the “effect on cellular ATP levels (acute cellular toxicity)” value with HBL1 cells is “did not significantly alter ATP levels even up to 1 μM”. Further, the “effect on DHFR protein levels” value on DHFR [4] is reported as “remained capable of depleting cellular DHFR”; at DHFR [4] (listed as MTX-PROTAC 9), “robust DHFR depletion”.
